From patent publication US6858217B2, “Stabilization of terpenoids in cosmetic compositions” (Unilever Home & Personal Care USA division of Conopco, Inc., priority 2002, dated 2005)

Legend:
[1] = Storage stability of linalool in skin lotion, GC/HS; conditions: for initial GC/HS: skin lotion with 1.0% fragrance (linalool 20%)
Description: (§1) The stability of terpenoid components of typical fragrances was examined in skin care formulations containing 4-substituted resorcinol derivatives to determine the resorcinol's effectiveness toward preventing degradation and loss of terpenoid upon storage. Two terpenoid components, limonene and linalool, were formulated as part of a fragrance in standard skin care lotions containing BHT (a standard antioxidant), unsubstituted resorcinol, 4-ethyl resorcinol and 4-hexyl resorcinol. The stability of these fragrance components was measured using GC/HS analysis to determine the loss of each terpenoid molecule with time as stored under typical consumer product storage conditions storage (5-month storage at 40° C. and in the sun at Room Temperature [RT]). The loss of limonene and linalool in a standard formulation containing no “anti-oxidants” was directly compared to loss of these materials with both BHT, unsubstituted resorcinol and the 4-substituted resorcinol derivatives.
(§2) With reference to the data in the Tables below, GC/HS measurements were taken on an Agilent 6890 GC/5973 MS using a Gerstel MPS2 Headspace Sampler. The samples were incubated at 35° C. for one hour and then 2.50 mL of the headspace above the sample was injected onto a Agilent Technologies number 19091S-433, HP-5MS, 5% Phenyl Methyl Siloxane column which has a 30 m×0.25 mm ID with a 0.25 μm film thickness. The GC data is recorded as peak area count for the two fragrance components.
(§3) The formulations in the Table below were prepared in accordance with the method set forth in Example 1 hereinabove.

[2] = Storage stability of limonene in skin lotion, GC/HS; conditions: for initial GC/HS: skin lotion with 1.0% fragrance (limonene 20%)
Description: as §1, §2, §3

[3] = Overall stabilization of terpenoid fragrance components in skin lotion; type: physicochemical; conditions: limonene and linalool in skin lotions, 5-month storage (sun RT, 40° C.)
Description: In most cases, the “control” formulation without anti-oxidants or the control with the unsubstituted resorcinol lost twice as much limonene and/or linalool as those formulations containing the 4-substituted resorcinols.

[4] = 5-month storage in the sun at RT

| 40° C. 5-months GC/HS ([1]; 5-month storage at 40° C.) [peak area count] | 40° C. % Loss ([1]; 5-month storage at 40° C.) [%] | Sun 5-months GC/HS [1, 4] [peak area count] | Sun % Loss [1, 4] [%] | initial GC/HS [1] [peak area count] | 40° C. 5-months GC/HS ([2]; 5-month storage at 40° C.) [peak area count] | 40° C. % Loss ([2]; 5-month storage at 40° C.) [%] | Sun 5-months GC/HS [2, 4] [peak area count] | Sun % Loss [2, 4] [%] | initial GC/HS [2] [peak area count] | stabilizing terpenoid molecules against degradation [3] | Compound | 40° C. % Stabilization ([1]; 5-month storage at 40° C.) [%] | Sun % Stabilization [1, 4] [%] | 40° C. % Stabilization ([2]; 5-month storage at 40° C.) [%] | Sun % Stabilization [2, 4] [%] |
| --- | --- | --- | --- | --- | --- | --- | --- | --- | --- | --- | --- | --- | --- | --- | --- |
| 4286137 | 29.6 | 3856563 | 36.7 | 6088780 | 19260141 | 57.6 | 25743642 | 43.4 | 45478209 | little to no stabilization | Oc1cccc(O)c1 [Resorcinol] | – | – | – | – |
| 2292953 | 30.2 | 2650924 | 19.4 | 3288967 | 46790409 | 12.9 | 54753996 | 0 | 54736538 | – | CCc1ccc(O)cc1O [4-EthylResorcinol, 4-ethyl resorcinol] | – | – | – | – |
| 1466948 | 10.2 | 1666185 | 7.5 | 2222930 | 3381932 | 18.5 | 34662250 | 7.7 | 40778538 | – | CCCCCCc1ccc(O)cc1O [4-HexylResorcinol, 4-hexyl resorcinol] | – | – | – | – |

| Compound | 40° C. 5-months GC/HS ([1]; 5-month storage at 40° C.) [peak area count] | 40° C. % Loss ([1]; 5-month storage at 40° C.) [%] | Sun 5-months GC/HS [1, 4] [peak area count] | Sun % Loss [1, 4] [%] | initial GC/HS [1] [peak area count] | 40° C. 5-months GC/HS ([2]; 5-month storage at 40° C.) [peak area count] | 40° C. % Loss ([2]; 5-month storage at 40° C.) [%] | Sun 5-months GC/HS [2, 4] [peak area count] | Sun % Loss [2, 4] [%] | initial GC/HS [2] [peak area count] | stabilizing terpenoid molecules against degradation [3] | 40° C. % Stabilization ([1]; 5-month storage at 40° C.) [%] | Sun % Stabilization [1, 4] [%] | 40° C. % Stabilization ([2]; 5-month storage at 40° C.) [%] | Sun % Stabilization [2, 4] [%] |
| --- | --- | --- | --- | --- | --- | --- | --- | --- | --- | --- | --- | --- | --- | --- | --- |
| Cc1cc(C(C)(C)C)c(O)c(C(C)(C)C)c1 [BHT Sample, BHT] | 4918953 | 28.2 | 4678449 | 31.4 | 6853529 | 26286287 | 31.7 | 32465677 | 15.3 | 38342803 | – | 29 | 16.5 | 35 | 48 |
